Experimental data: patent publication US5571524A, “Agent for curing ischemic myocardial disease” (Unitika Ltd., priority 1994, dated 1996)

Key:
[1] = test system: Mongrel dogs; assay: Amelioration of myocardial ischemia: coronary blood flow, fractional shortening and perfusion pressure during factitious 1/3 blood flow; type: in vivo; conditions: for Myocardial fractional shortening / Coronary blood flow / Coronary perfusion pressure: ischemia (1/3 blood flow), N = 2
Protocol: (§1) Mongrel dogs weighing 18-22 kg were anesthetized with pentobarbital sodium (30 mg/kg). The trachea was intubated, and the dog was ventilated with room air with oxygen. The chest was opened through the left fifth intercostal space, and the heart was suspended in a pericardial cradle. The left anterior descending coronary artery was cannulated and perfused with blood via the carotid artery through an extracorporeal bypass tube after heparinization (500 units/kg). Coronary blood flow (CBF) was measured with an electromagnetic flow probe attached to the bypass tube, and coronary perfusion pressure (CPP) was monitored at the tip of the coronary arterial cannula. A small, short collecting tube was cannulated into a small coronary vein near the center of the perfused area to sample coronary venous blood. The drained venous blood was collected in a reservoir placed at the level of the left atrium. A high fidelity of left ventricular pressure and its first derivative were measured by a micromanometer (model P-5, Konigsberg Instruments, Inc., Pasadena, Calif.) placed in the left ventricular cavity through the apex. A pair of ultrasonic crystals was placed in the center of the perfused area about 1 cm apart to measure myocardial segment length with an ultrasonic dimension gauge (5 MHz, Schuessler, Cardiff by the Sea, Calif.). End-diastolic length (EDL) was determined at the R wave of the electrocardiogram, and end-systolic length (ESL) was determined at the minimal dP/dt. Fractional shortening was calculated by (EDL-ESL)/EDL as an index of myocardial contractility of the perfused area.
(§2) After stabilization, CPP was decreased with partial occlusion of the bypass tube to the left anterior descending coronary artery such that CBF decreased to one third of the control flow. The low CPP was maintained during this test.
(§3) Blood sampling from coronary veins and coronary arteries was conducted. Then the intracoronary administration of Ap4A was stopped. The lowered coronary perfusion pressure was further maintained for 10 minutes.
(§4) The above test was repeated by replacing Ap4A with adenosine with the dosage thereof being changed to 4, 8 and 16 μg/kg/min.

[2] = test system: Mongrel dogs; assay: Myocardial oxygen consumption (MVO2), nonischemic condition; type: in vivo; conditions: for Myocardial oxygen consumption: control 9.1
Protocol: as §1
After stabilization, a physiological saline solution prepared by dissolving Ap4A.4Na in physiological saline was continuously infused into the coronary artery, with the dosage thereof increased to 0.5, 1, 2, 4 and 8 μg/kg/min, and the changes in coronary blood flow were measured in order to assess the coronary blood flow increase effect of Ap4A.
Changes in myocardial oxygen consumption (MVO2) (ml/100 g/min) caused by the administration of Ap4A were measured as shown in TABLE 2.

[3] = Japanese Laid-Open Patent Application 3-167126; cited from earlier work
[4] = test system: Mongrel dogs; assay: Coronary blood flow increase effect, nonischemic condition; type: in vivo; conditions: for Coronary blood flow: N = 1 - 2; for coronary blood flow increase: nonischemic
Protocol: as §1
After stabilization, a physiological saline solution […], with the dosage thereof increased to 0.5, 1, 2, 4 and 8 μg/kg/min, and the changes in coronary blood flow were measured in order to assess the coronary blood flow increase effect of Ap4A.
8-sulfophenyltheophylline (hereinafter referred to as 8-SPT) serving as adenosine P1 receptor antagonist with a dose of 25 μg/kg/min was tested.
The above test was also repeated by replacing 8-SPT with N^G -nitro-L-arginine methyl ester (hereinafter referred to as L-NAME) serving as an endothelial-cell-induced nitric oxide (NO) synthesis inhibitor with a dose of 3 μg/kg/min(ic).
The above test was then repeated using 8-SPT and L-NAME in combination.

[5] = test system: Mongrel dogs; assay: Lactate extraction ratio and pH of venous blood during ischemia; type: in vivo; conditions: ischemia (1/3 blood flow), N = 2
Protocol: as §1
Namely, the lactate extraction ratio was obtained by coronary arteriovenous difference in lactate concentration multiplied by 100 and divided by arterial lactate concentration.
as §2, §3, §4
As mentioned previously, in the above-mentioned experimental systems, lactate extraction ratio and pH of venous blood were measured at the time of the intracoronary administration of Ap4A and also at the time of the intracoronary administration of adenosine.

[6] = test system: human platelet; conditions: Leuthje and Ogiluie 1984; cited from earlier work
[7] = Japanese Laid-Open Patent Application 5-286861; cited from earlier work
[8] = test system: rabbit mesenteric arteries; conditions: R. Busse et al. 1988; cited from earlier work
[9] = test system: coronary vessels; conditions: at normal time; cited from earlier work
[10] = cited from earlier work

## Nc1ncnc2c1ncn2[C@@H]1O[C@H](COP(=O)(O)OP(=O)(O)OP(=O)(O)OP(=O)(O)OC[C@H]2O[C@@H](n3cnc4c(N)ncnc43)[C@H](O)[C@@H]2O)[C@@H](O)[C@H]1O [Ap4A, Diadenosine 5',5"'-p^1, p^4 -tetraphosphate]
[1]; Ap4A 4 μg/kg/min intracoronary 10 minutes, control 24.7, 1/3 control 4.9
  Myocardial fractional shortening: 11.5%
[1]; Ap4A 4 μg/kg/min intracoronary 10 minutes, control 90.5, 1/3 control 30.4
  Coronary blood flow: 48.2 ml/100 g/min
[1]; Ap4A 4 μg/kg/min intracoronary 10 minutes, control 104, 1/3 control 54
  Coronary perfusion pressure: 54 mmHg
[1]; Ap4A administration stopped, 1/3 control 4.9
  Myocardial fractional shortening: 4.8%
[1]; Ap4A administration stopped, 1/3 control 30.4
  Coronary blood flow: 31.9 ml/100 g/min
[1]; Ap4A administration stopped, 1/3 control 54
  Coronary perfusion pressure: 54 mmHg
[1]; ischemia, Ap4A 4 μg/kg/min
  prevention of decrease in myocardial fractional shortening: significantly preventing a decrease in myocardial fractional shortening
[1]; mongrel dogs in a state of excessive ischemia
  amelioration effect on myocardial ischemia: noticeable amelioration effect on myocardial ischemia
[2]; Ap4A 0.5 μg/kg/min
  Myocardial oxygen consumption: 9.9 ml/100 g/min
[2]; Ap4A 1 μg/kg/min
  Myocardial oxygen consumption: 9.0 ml/100 g/min
[2]; Ap4A 2 μg/kg/min
  Myocardial oxygen consumption: 8.7 ml/100 g/min
[2]; Ap4A 4 μg/kg/min
  Myocardial oxygen consumption: 8.7 ml/100 g/min
[2]; Ap4A 8 μg/kg/min
  Myocardial oxygen consumption: 9.5 ml/100 g/min
[2]; Ap4A 0.5 to 8 μg/kg/min
  myocardial oxygen consumption (MVO2) change: neither largely increased nor decreased
[3]
  anti-arrhythmia effect: anti-arrhythmia effect
[4]; 8-SPT 25 μg/kg/min
  coronary blood flow increase effect of Ap4A in presence of 8-SPT: partially inhibited
[4]; 8-SPT and L-NAME in combination
  coronary blood flow increase effect of Ap4A in presence of 8-SPT and L-NAME: not completely inhibited
[4]; L-NAME 3 μg/kg/min (ic)
  coronary blood flow increase effect of Ap4A in presence of L-NAME: only slightly inhibited
[4]; Untreated (no inhibitor), Ap4A 0.5 μg/kg/min intracoronary, control 93.7
  Coronary blood flow: 104.1 ml/100 g/min
[4]; Untreated (no inhibitor), Ap4A 1 μg/kg/min intracoronary, control 93.7
  Coronary blood flow: 122.2 ml/100 g/min
[4]; Untreated (no inhibitor), Ap4A 2 μg/kg/min intracoronary, control 93.7
  Coronary blood flow: 137.6 ml/100 g/min
[4]; Untreated (no inhibitor), Ap4A 4 μg/kg/min intracoronary, control 93.7
  Coronary blood flow: 158.9 ml/100 g/min
[4]; Untreated (no inhibitor), Ap4A 8 μg/kg/min intracoronary, control 93.7
  Coronary blood flow: 202.2 ml/100 g/min
[4]; intracoronary 0.5 to 8 μg/kg/min
  coronary blood flow increase: significantly increasing the coronary blood flow dose-dependently
[4]; intravenous administration
  coronary blood flow increase: This effect was also observed
[4]; with 8-SPT 25 μg/kg/min, Ap4A 0.5 μg/kg/min, control 97.0
  Coronary blood flow: 98.6 ml/100 g/min
[4]; with 8-SPT 25 μg/kg/min, Ap4A 1 μg/kg/min, control 97.0
  Coronary blood flow: 96.8 ml/100 g/min
[4]; with 8-SPT 25 μg/kg/min, Ap4A 2 μg/kg/min, control 97.0
  Coronary blood flow: 106.1 ml/100 g/min
[4]; with 8-SPT 25 μg/kg/min, Ap4A 4 μg/kg/min, control 97.0
  Coronary blood flow: 117.0 ml/100 g/min
[4]; with 8-SPT 25 μg/kg/min, Ap4A 8 μg/kg/min, control 97.0
  Coronary blood flow: 124.5 ml/100 g/min
[4]; with 8-SPT + L-NAME, Ap4A 0.5 μg/kg/min, control 97.1
  Coronary blood flow: 97.1 ml/100 g/min
[4]; with 8-SPT + L-NAME, Ap4A 1 μg/kg/min, control 97.1
  Coronary blood flow: 108.6 ml/100 g/min
[4]; with 8-SPT + L-NAME, Ap4A 2 μg/kg/min, control 97.1
  Coronary blood flow: 102.9 ml/100 g/min
[4]; with 8-SPT + L-NAME, Ap4A 4 μg/kg/min, control 97.1
  Coronary blood flow: 114.3 ml/100 g/min
[4]; with 8-SPT + L-NAME, Ap4A 8 μg/kg/min, control 97.1
  Coronary blood flow: 120.0 ml/100 g/min
[4]; with L-NAME 3 μg/kg/min (ic), Ap4A 0.5 μg/kg/min, control 90.3
  Coronary blood flow: 100.0 ml/100 g/min
[4]; with L-NAME 3 μg/kg/min (ic), Ap4A 1 μg/kg/min, control 90.3
  Coronary blood flow: 119.4 ml/100 g/min
[4]; with L-NAME 3 μg/kg/min (ic), Ap4A 2 μg/kg/min, control 90.3
  Coronary blood flow: 122.6 ml/100 g/min
[4]; with L-NAME 3 μg/kg/min (ic), Ap4A 4 μg/kg/min, control 90.3
  Coronary blood flow: 151.6 ml/100 g/min
[4]; with L-NAME 3 μg/kg/min (ic), Ap4A 8 μg/kg/min, control 90.3
  Coronary blood flow: 219.4 ml/100 g/min
[5]; Ap4A 4 μg/kg/min intracoronary, control 7.39, 1/3 control 7.23
  pH of venous blood: 7.29
[5]; Ap4A 4 μg/kg/min intracoronary, control 28.3, 1/3 control -39.8
  Lactate extraction ratio: -15.8%
[5]; Ap4A administration stopped, 1/3 control 7.23
  pH of venous blood: 7.19
[5]; Ap4A administration stopped, 1/3 control -39.8
  Lactate extraction ratio: -48.6%
[6]
  ADP-induced human platelet aggregation inhibitory effect: ADP-induced human platelet aggregation inhibitory effect
[7]
  deliberated hypotensive effect: deliberated hypotensive effect
[8]
  vasodilating effect on rabbit mesenteric arteries: vasodilating effect on rabbit mesenteric arteries
[9]
  vasodilating effect on coronary vessels: vasodilating effect on coronary vessels at normal time
[10]
  degradation in vivo: degraded in vivo to ATP and AMP, which are eventually degraded to adenosine
